{
  "source": "patent US20110212053A1",
  "about": "“PHOSPHATIDYLINOSITOL 3 KINASE INHIBITORS” (priority 2008, published 2011)",
  "biological_target": "PDGFRα(D842V) (Homo sapiens, UniProt P16234, D842V)",
  "sequence (P16234 24-1089 D842V)": "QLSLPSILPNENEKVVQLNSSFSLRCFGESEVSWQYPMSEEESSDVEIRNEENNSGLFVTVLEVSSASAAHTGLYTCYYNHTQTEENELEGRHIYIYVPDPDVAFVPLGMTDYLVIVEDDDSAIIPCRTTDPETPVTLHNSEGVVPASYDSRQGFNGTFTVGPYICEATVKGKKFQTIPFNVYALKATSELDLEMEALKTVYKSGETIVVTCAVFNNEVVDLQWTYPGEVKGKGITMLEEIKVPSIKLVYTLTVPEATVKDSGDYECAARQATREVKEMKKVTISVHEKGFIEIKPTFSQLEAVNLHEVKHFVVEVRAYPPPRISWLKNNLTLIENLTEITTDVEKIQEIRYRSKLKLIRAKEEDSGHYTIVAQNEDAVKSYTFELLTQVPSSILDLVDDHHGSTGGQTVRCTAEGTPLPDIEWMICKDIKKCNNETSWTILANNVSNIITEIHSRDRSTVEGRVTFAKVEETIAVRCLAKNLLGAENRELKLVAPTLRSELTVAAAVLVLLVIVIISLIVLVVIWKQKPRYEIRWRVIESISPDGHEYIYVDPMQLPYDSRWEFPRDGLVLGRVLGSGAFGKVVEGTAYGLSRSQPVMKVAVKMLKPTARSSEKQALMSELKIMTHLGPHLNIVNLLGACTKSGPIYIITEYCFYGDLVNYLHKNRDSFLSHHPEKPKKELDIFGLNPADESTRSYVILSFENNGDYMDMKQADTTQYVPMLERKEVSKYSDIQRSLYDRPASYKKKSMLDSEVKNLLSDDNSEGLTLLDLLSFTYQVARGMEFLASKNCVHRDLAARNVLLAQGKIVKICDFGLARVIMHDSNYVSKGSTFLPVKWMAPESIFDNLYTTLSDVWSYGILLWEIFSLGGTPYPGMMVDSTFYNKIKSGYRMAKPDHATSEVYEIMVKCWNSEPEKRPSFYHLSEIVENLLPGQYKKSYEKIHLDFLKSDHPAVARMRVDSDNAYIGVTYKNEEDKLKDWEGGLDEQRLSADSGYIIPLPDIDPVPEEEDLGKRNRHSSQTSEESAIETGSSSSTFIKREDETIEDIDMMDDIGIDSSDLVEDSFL",
  "test": "Radiometric HotSpot kinase assay, PDGFRα(D842V)",
  "assay_type": "biochemical",
  "experimental": "Kinase Profiling: The inhibitory activity of the PI3K inhibitor compounds of the invention against 250 protein kinases was determined via the radiometric HotSpot Kinase Profiling (Reaction Biology Corporation, Malvern, Pa.). Compounds were profiled at a final concentration of 1 μM compound against recombinant protein kinases in the presence of 10 μM ATP and data were expressed as percent inhibition. IC50 and/or percent inhibition at 1 μM compound values were determined for select compounds against a subset of kinases (MELK, MNK1, MNK2, mTOR, PIM-1. TRKC, and PDGFRα(D842V)).\nCompounds of the invention were assayed against the select kinases using the KinaseGLO assay (MELK) or the radiometric assay (PIM, TRKC, PDGFRα(D842V), MNK1 and mTOR). IC50 values were determined using 8-10 point half-log dose dilutions and calculated via nonlinear regression analysis using Graphpad Prism data analysis software.",
  "data": [
    {"compound": "CC(C)(C#N)c1ccc(-c2n[nH]c3cnc4ccc(-c5ccc6ncccc6c5)cc4c23)cc1", "note": "[Compound 1110, 2-methyl-2-(4-(8-(quinolin-6-yl)-3H-pyrazolo[3,4-c]quinolin-1-yl)phenyl)propanenitrile]", "values": [
      {"measurement": "IC50", "result": "> 100", "unit": "nM"}
    ]}
  ]
}
